Test results taken from patent publication US20030113263A1, “Methods and reagents for using mammalian melanocortin receptor antagonists to treat cachexia” (Oregon Health and Sciences University, a non-profit …, priority 2001, published 2003).

What was measured:
[1] = biological target: T1, human MC-4 melanocortin receptor (Homo sapiens, UniProt P32245); assay: intracellular cAMP accumulation (adenylate cyclase coupling) in transfected human 293 cells; format: cell-based; set-up: expressed in transfected cells; settings: 293 cells expressing human MC-4 receptor, 45 min at 37° C.
Target sequence in this assay (P32245 whole entry): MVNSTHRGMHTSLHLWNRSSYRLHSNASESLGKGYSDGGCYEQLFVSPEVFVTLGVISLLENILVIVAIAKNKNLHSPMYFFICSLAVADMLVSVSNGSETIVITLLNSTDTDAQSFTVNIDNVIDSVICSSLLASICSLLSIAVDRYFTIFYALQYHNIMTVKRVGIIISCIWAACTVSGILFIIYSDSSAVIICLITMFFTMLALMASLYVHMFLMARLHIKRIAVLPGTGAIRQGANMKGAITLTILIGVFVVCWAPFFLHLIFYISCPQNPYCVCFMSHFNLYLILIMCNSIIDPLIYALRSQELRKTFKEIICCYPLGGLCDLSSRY
Procedure: Melanocortin receptor coupling to G-proteins in cells expressing the MC-4 melanocortin receptor was used analyze expression of the receptor in cell colonies transfected with the expression vectors described herein as follows. Cells (˜1×10^6) were plated in 6-well dishes, washed once with DMEM containing 1% bovine serum albumin (BSA) and 0.5mM IBMX (a phosphodiesterase inhibitor), then incubated for 45 minutes at 37° C. with varying concentrations of the melanotropic peptides. Following hormone treatment, the cells were washed twice with phosphate buffered saline and intracellular cAMP extracted by lysing the cells with 1 ml of 60% ethanol.

[2] = biological target: T1, human MC-4 melanocortin receptor; assay: cell-based or functional assay
Target sequence in this assay (P32245 other isoform, or with tags, fused parts or gaps): as the sequence (P32245 whole entry) above, with E42A, V65E, V103I, S109R, I169S, M215L, C318S, C319S counted along it

[3] = system: LPS-induced anorexia and fever in rats; settings: central administration; cited from earlier work
[4] = biological target: T1, human MC-4 melanocortin receptor; assay: antagonism of agonist-induced cAMP elevation, Schild analysis; format: cell-based; set-up: expressed in transfected cells; settings: agouti peptide approx. 60% pure; results not shown
Target sequence in this assay (P32245 whole entry): as the sequence (P32245 whole entry) above

Molecule `CSCC[C@H](N)C(=O)N[C@@H](CCC(=O)O)C(=O)N[C@@H](Cc1c[nH]cn1)C(=O)N[C@@H](Cc1ccccc1)C(=O)N[C@@H](CCCNC(=N)N)C(=O)N[C@@H](Cc1c[nH]c2ccccc12)C(=O)NCC(=O)O` [ACTH4-10] has an EC50 [1] of over 100 nM.

In the case of “ACTH1-39 (from UniProt P01189 138-176) (peptide)”, the Ec50 (adenylate cyclase activity, intracellular cAMP accumulation in transfected 293 cells) [2] is reported as 0.68 nM.

“ACTH4-10 (from UniProt P01189) (peptide)” gave an Ec50 (adenylate cyclase activity, intracellular cAMP accumulation in transfected 293 cells) [2] of over 100 nM.

In the case of “Ac-Nle^4-cyclo(Asp^5, D-Nal(2)^7, Lys^10) αMSH-(4-10)-amide [SHU9119]”, the “effect on LPS-induced fever” value [3] is given as “increased” and the “effect on LPS-induced suppression of food intake” value [3] is given as “reversal of LPS-induced anorexia”.

In the case of “α-melanocyte stimulating hormone [α-MSH]”, the “effect on LPS-induced fever” value [3] is given as “reduced” and the “effect on LPS-induced suppression of food intake” value [3] is given as “significant potentiation of the suppressive effects of LPS on food intake”.

Molecule “γ2-MSH (from UniProt P01189 77-88) (peptide)” has an Ec50 (adenylate cyclase activity, intracellular cAMP accumulation in transfected 293 cells) [2] of over 100 nM.

B1: agouti: murine agouti peptide produced using a baculovirus system, approximately 60% pure (protein)
chain: HLALEETLGDDRSLRSNSSMNSLDFSSVSIVALNKKSKKISRKEAEKRKRSSKKKASMKKVARPPPPSPCVATRDSCKPPAPACCDPCASCQCRFFGSACTCRVLNPNC
In the case of B1, the “competition of α-MSH activation of human MC-4 melanocortin receptors” value [4] is reported as “Specific competition”.
